In patent publication US11865128B2, “Aminoglycosides and uses thereof in treating genetic disorders” (Technion Research & Development Foundation Limited, priority 2010, dated 2024):
In brackets after ≈: the same amount, converted by molar mass. Entries after “also recorded” stand apart in the source; their conditions may differ. Like-named read-outs stand apart in the source and are kept apart here.

How the values were obtained:
[1] = tested on: Eukaryotic system (eukaryotic cytoplasmic ribosome); assay: Eukaryotic translation inhibition, coupled transcription/translation, luciferase detection; assay type: biochemical; conditions: for Prokaryotic versus Eukaryotic selectivity IC50^Euk/IC50^Pro: ratio of eukaryotic to prokaryotic translation inhibition IC50; for more specific to the eukaryotic ribosome than parent (NB30 or NB54): comparison of eukaryotic IC50 values with parent structure
Excerpt: Prokaryotic and eukaryotic translation inhibition was quantified in coupled transcription/translation assays by using active luciferase detection, performed as described hereinabove. […] In all biological tests, all tested aminoglycosides were in their sulfate salt forms. The concentrations reported refer to that of the free amine form of each aminoglycoside.
(§1) In all biological experiments conducted, all tested aminoglycosides were in their sulfate salt forms. The concentrations reported in Table 3 refer to that of the free amine form of each aminoglycoside. Prokaryotic and eukaryotic translation inhibition was quantified in coupled transcription/translation assays as previously described. The half-maximal concentration (IC50) values were obtained from fitting concentration response curves to the data of at least three independent experiments, using GraFit 5 software.

[2] = tested on: nonsense mutation constructs R3X, R245X, G542X, W1282X, Q70X, R3381X (PCDH15, CFTR, IDUA, Dystrophin); assay: In vitro stop codon readthrough assay, p2Luc dual luciferase, TNT reticulocyte lysate; assay type: biochemical; conditions: cell-free, mutations tested; comparison in words from FIGS. 2, 3, 5-7
Excerpt: DNA fragments derived from PCDH15, CFTR, Dystrophin and IDUA cDNAs, including the tested nonsense mutation or the corresponding wild type (wt) codon, and four to six upstream and downstream flanking codons were created by annealing following pairs of complementary oligonucleotides:
The fragments were inserted in frame into the polylinker of the p2Luc plasmid between either BamHI and SacI (p.R3X and p.R245X), or SalI and SacI (all the rest) restriction sites.
For the in vitro readthrough assays, the obtained plasm ids, with addition of the tested aminoglycosides were transcribed and translated using the TNT Reticulocyte Lysate Quick Coupled Transcription/Translation System. Luciferase activity was determined after 90 minutes of incubation at 30° C., using the Dual Luciferase Reporter Assay System (Promega™).
Initially, the influence of the chiral C5″-methyl group on readthrough potential was evaluated on the pseudo-trisaccharides NB118 and NB119 by using a dual luciferase reporter assay system as described hereinabove. Briefly, DNA fragments were cloned between BamHI and SacI restriction sites of the p2luc vector and the obtained constructs were transcribed and translated using TNT quick coupled transcription/translation system. The amount of the translated products was evaluated using the dual luciferase reporter assay system and used to calculate the suppression level.

[3] = Cell toxicity LC50 in HFF cells; assay type: cell-based; conditions: human
Experimental: (§2) In order to ensure suitable cell viability for each of the tested compounds at the concentrations tested, cell toxicity was evaluated for each compound by measuring the half-maximal-lethal concentration value (LC50 values) in HEK-293 and HFF (human foreskin fibroblasts) cells.
(§3) The percentages of cell viability were calculated as the ratio between the numbers of living cells in cultures grown in the presence of the tested compounds, versus cultures grown under the identical protocol but without the tested compound. The results represent averages of at least three independent experiments.
(§4) The half-maximal lethal concentration (LC50) values were obtained from fitting concentration-response curves to the data of at least three independent experiments, using GraFit 5 software.

[4] = target: Prokaryotic system (prokaryotic ribosome); assay: Prokaryotic translation inhibition, coupled transcription/translation, luciferase detection; assay type: biochemical
Experimental: Prokaryotic and eukaryotic translation inhibition was quantified in coupled transcription/translation assays by using active luciferase detection, performed as described hereinabove. […] All the experiments were performed in duplicates and analogous results were obtained in three different experiments. In all biological tests, all tested aminoglycosides were in their sulfate salt forms. The concentrations reported refer to that of the free amine form of each aminoglycoside.
as §1, with “software. All the experiments were performed in duplicates and analogous results were obtained in three different experiments.” for “software.”

[5] = Cell toxicity LC50 in HEK-293 cells; assay type: cell-based; conditions: human
Experimental: as §2, §3, §4

[6] = tested on: nonsense mutation constructs R3X, R245X, Q70X, W1282X, G542X in HEK-293 cells; assay: Ex vivo stop codon readthrough assay, p2luc constructs transfected to HEK-293 cells; assay type: cell-based, human; conditions: ex vivo in HEK-293, all the mutations tested, FIGS. 4, 8-10
Experimental: For the ex vivo readthrough assays, the constructs harboring the R3X, R245X, Q70X and W1282X mutations were transfected to HEK-293 cells with Lipofectamine 2000 (Invitrogen) and addition of the tested compounds was performed 6 hours post transfection. The cells were harvested following 16 hours of incubation with the tested aminoglycosides. Stop codon readthrough was calculated as previously described (see, Grentzmann, G. et al., RNA, 1998, 4, p. 479).
The constructs were transfected into a human embryonic kidney cell line (HEK-293) and incubated with varying concentrations of NB122, NB123, NB54 and the control drug gentamicin, and the results are presented in FIGS. 4A-D.
As described hereinabove, the constructs of p2luc plasmid harboring the R3X, R245X, Q70X and W1282X mutations were transfected to HEK-293 cells using lipofectamine2000 and the tested compounds were added 6 hours post transfection. Cells were harvested after 16 hours incubation and luciferase activity was determined using the dual luciferase reporter assay system (Promega™). Stop codon readthrough was calculated as described previously, and the results are averages of at least three independent experiments.

[7] = tested on: B. subtilis ATCC6633; assay: Antibacterial activity MIC, double-microdilution; assay type: cell-based, Bacillus subtilis; conditions: read-out: Antibacterial activity MIC B. subtilis ATCC6633
[8] = tested on: E. coli R477/100; assay: Antibacterial activity MIC, double-microdilution; assay type: cell-based, Escherichia coli; conditions: read-out: Antibacterial activity MIC E. coli R477/100
[9] = tested on: HFF (human foreskin fibroblasts) cells; assay: Cell toxicity LC50 in HFF cells; assay type: cell-based
Experimental: as §2, §3, §4

[10] = tested on: HEK-293 cells; assay: Cell toxicity LC50 in HEK-293 cells; assay type: cell-based
Experimental: as §2, §3, §4

[11] = Table 2, read-out: Translation Inhibition Eukaryotic System IC50
[12] = Table 3, read-out: Translation Inhibition IC50^Euk
[13] = Table 2, read-out: Translation Inhibition Prokaryotic system IC50
[14] = Table 3, read-out: Translation Inhibition IC50^Pro
[15] = Table 1, read-out: Translation inhibition Eukaryotic System IC50
[16] = HFF (human foreskin fibroblast) cells, Table 1, read-out: Cell toxicity LC50 HFF
[17] = Table 1, read-out: Translation inhibition Prokaryotic system IC50
[18] = HEK-293 cells, Table 1, read-out: Cell toxicity LC50 HEK-293
[19] = Bacillus subtilis, ATCC6633, Table 1, free amine concentration, sulfate salts tested
[20] = Escherichia coli, R477/100, Table 1

Molecule	Prokaryotic versus Eukaryotic selectivity IC50^Euk/IC50^Pro [1]	in vitro readthrough activity (stop codon suppression level) [2]	IC50 [1, 12] [µM]	IC50 [4, 14] [nM]	observed efficacy of aminoglycoside-induced readthrough, order [6]	IC50 [1, 15] [µM]	CC50 [3, 16] [mM]	IC50 [4, 17] [nM]	CC50 [5, 18] [mM]	MIC [7, 19] [µM]	MIC [8, 20] [µM]	also measured
NC1C(OCOC2C(N)[C@H](O[C@H]3C(N)C[C@H](N)C(O)C3O)OC(CO)[C@@H]2O)[C@H](O)C(CO)O[C@@H]1O[C@@H]1C(N)C[C@@H](N)C(O)C1O (stereo partly drawn) [NB33, reference compound]	about 2	essentially no readthrough activity; also recorded: almost no readthrough activity										
C[C@H](N)[C@H]1O[C@@H](OC2C(O)[C@H](N)CC(N)[C@H]2O[C@H]2OC([C@@H](C)O)[C@@H](O)C(O)C2N)C(O)C1O (stereo partly drawn) [NB124, 6′-(R)-Methyl-5-O-(5-amino-5,6-dideoxy-α-L-talofuranosyl)-Paromamine]	1.3	improved significantly compared to that of the clinical drug gentamicin	1.49 ± 0.08	1100 ± 185	NB124>NB125>NB74>gentamicin							IC50 [1, 11]: 1.49 ± 0.08 µM; CC50 ([3]; HFF (human foreskin fibroblast) cells, Table 2, read-out: Cell toxicity LC50 HFF): 4.75 ± 0.33 mM; IC50 [4, 13]: 1100 ± 185 nM; CC50 ([5]; HEK-293 cells, Table 2, read-out: Cell toxicity LC50 HEK-293): 5.4 ± 0.45 mM; MIC ([7]; Bacillus subtilis, ATCC6633, Table 2): 96 µM (≈ 46.3 µg/mL); MIC ([8]; Escherichia coli, R477/100, Table 2): 768 µM (≈ 371 µg/mL)
C[C@H](N)[C@H]1O[C@@H](OC2C(O)[C@H](N)CC(N)[C@H]2O[C@H]2OC(CO)[C@@H](O)C(O)C2N)C(O)C1O (stereo partly drawn) [NB118, 5-O-(5-Amino-5,6-dideoxy-α-L-talofuranosyl)-paromamine]	7.9	significantly better than that of the clinical drug gentamicin	15.5 ± 1.3	1960 ± 206		16	21.8 ± 0.5	1960 ± 206	23.5	83	2660 (≈ 1250 µg/mL)	more specific to the eukaryotic ribosome than parent (NB30 or NB54) [1]: 1.9 fold
NC[C@@H]1O[C@H](O[C@H]2[C@@H](O)[C@H](O[C@@H]3[C@@H](O)[C@H](N)C[C@H](N)[C@H]3O[C@H]3O[C@H](CO)[C@@H](O)[C@H](O)[C@H]3N)O[C@@H]2CO)[C@H](N)[C@@H](O)[C@@H]1O [Paromomycin, reference compound]	1,118		57 ± 4	51 ± 5		57 ± 4		51 ± 5		1.2	22 (≈ 13.5 µg/mL)	more selective to prokaryotic versus eukaryotic ribosome [1]: 1,118 fold; CC50 [3]: 3.1 ± 0.4 mM; CC50 [5]: 4.1 ± 0.5 mM
C[C@H](N)[C@H]1O[C@@H](OC2C(O)[C@H](NC(=O)[C@@H](O)CCN)CC(N)[C@H]2O[C@H]2OC(CO)[C@@H](O)C(O)C2N)C(O)C1O (stereo partly drawn) [NB122, 5-O-(5-Amino-5,6-dideoxy-α-L-talofuranosyl)-1-N—[(S)-4-amino-2-hydroxy-butanoyl]paromamine]	2.3	induced the highest level of readthrough	5.2 ± 0.7	2270 ± 196	NB122≥NB123>NB54>gentamicin	5.2	8.1 ± 1.4	2270 ± 196	10.1	33	1070 (≈ 608 µg/mL)	more specific to the eukaryotic ribosome than parent (NB30 or NB54) [1]: 4.6 fold
C[C@@H](N)[C@H]1O[C@@H](OC2C(O)[C@H](NC(=O)[C@@H](O)CCN)CC(N)[C@H]2O[C@H]2OC(CO)[C@@H](O)C(O)C2N)C(O)C1O (stereo partly drawn) [NB123, 5-O-(5-Amino-5,6-dideoxy-β-D-allofuranosyl)-1-N—[(S)-4-amino-2-hydroxy-butanoyl] paromamine]	5.7		4.6 ± 0.6	811 ± 59	NB122≥NB123>NB54>gentamicin	4.6 ± 0.6	19.3 ± 1.5	811 ± 59	13.9 ± 1.3	33	1060 (≈ 602 µg/mL)	
C[C@@H](N)[C@H]1O[C@@H](OC2C(O)[C@H](N)CC(N)[C@H]2O[C@H]2OC(CO)[C@@H](O)C(O)C2N)C(O)C1O (stereo partly drawn) [NB119, 5-O-(5-Amino-5,6-dideoxy-β-D-allofuranosyl)-paromamine]	13	comparatively small	28 ± 1.1	2130 ± 478		28 ± 1.1	20.1 ± 0.6	2130 ± 478	19.8 ± 0.4	78	4990 (≈ 2340 µg/mL)	
Gentamicin [reference compound]	2,214		62 ± 9	28 ± 4	NB127 NB128>NB84>gentamicin	62 ± 9		28 ± 4				more selective to prokaryotic versus eukaryotic ribosome [1]: 2,214 fold; IC50 [1, 11]: 62 ± 9 µM; CC50 ([9]; Table 1): 3.2 ± 0.3 mM; CC50 ([9]; Table 2): 3.21 ± 0.31 mM; IC50 [4, 13]: 28 ± 4 nM; CC50 ([10]; Table 1): 2.5 ± 0.3 mM; CC50 ([10]; Table 2): 2.65 ± 0.54 mM; observed efficacy of aminoglycoside-induced readthrough, order ([6]; listed as gentamicin): NB122≥NB123>NB54>gentamicin; also recorded: NB124>NB125>NB74>gentamicin; MIC ([7]; Table 1, free amine concentration, sulfate salts tested): <0.75 µM; MIC ([7]; Table 2): <0.75 µM; MIC ([8]; Table 1): 6 µM; MIC ([8]; Table 2): 6 µM
